From US20110008409A1, “PHARMACEUTICAL PREPARATION CONTAINING A GESTAGEN, AND KIT AND METHOD FOR TREATING ENDOMETRIOSIS USING THE PREPARATION” (priority 2007, published 2011)

Legend:
[1] = tested on: women with laparoscopically diagnosed endometriosis; settings: in vivo
[2] = tested on: subjects affected with endometriosis; settings: 2 mg of dienogest per day for 24 weeks; cited from earlier work
[3] = tested on: women with laparoscopically diagnosed endometriosis; assay: Clinical study in endometriosis: pain scale (visual analog scale, VAS); format: in vivo; settings: end of 6-month treatment; for pain reduction on visual analog scale (VAS) compared to the pain experienced at the beginning of therapy: DNG 2 mg/d orally, LA 3.75 mg s.c. every 4 weeks
Procedure: (§1) The efficacy of each therapy was evaluated by means of, among other methods, a pain scale (visual analog scale, VAS) form filled out by the patient.

[4] = tested on: women with laparoscopically diagnosed endometriosis; settings: in vivo; remark: listed apart in the source
Procedure: as §1

[5] = tested on: women with laparoscopically diagnosed endometriosis; settings: in vivo; remark: listed apart in the source
Procedure: as §1
The effect of the two therapies on bone metabolism was studied in a subgroup of patients.

ovulation = settings: daily dose; as set for the purposes of the invention; cited from earlier work

Row | estrogen values, average value at the end of study [1] | course of hot flash symptomatology during therapy [4] | change of bone density compared to the beginning of the study [5] | laboratory parameters for determining bone metabolism [5] | SMILES | result of the treatment compared with Danazol or GnRH agonists [2] | statistical analysis of pain reduction versus comparator ([3]; DNG 2 mg/d orally vs LA 3.75 mg s.c. every 4 weeks) | pain reduction on visual analog scale (VAS) compared to the pain experienced at the beginning of therapy [3] | ovulation-inhibiting dose (ovulation)
1 | 249.9 pmol/L | reduced | +0.25% |  | C[C@]12CCC3=C4CCC(=O)C=C4CC[C@H]3[C@@H]1CC[C@@]2(O)CC#N [DNG, 17α-cyanomethyl-17-β-hydroxyestra-4,9-dien-3-one] | comparable | not inferior to LA | −47.5 mm | 
2 | 68.5 pmol/L | increased | −4.0% | increased bone resorption | CCNC(=O)[C@@H]1CCCN1C(=O)[C@H](CCCNC(=N)N)NC(=O)[C@H](CC(C)C)NC(=O)[C@@H](CC(C)C)NC(=O)[C@H](Cc1ccc(O)cc1)NC(=O)[C@H](CO)NC(=O)[C@H](Cc1c[nH]c2ccccc12)NC(=O)[C@H](Cc1c[nH]cn1)NC(=O)[C@@H]1CCC(=O)N1 [LA, leuprorelin acetate] |  |  | −46.0 mm | 
3 |  |  |  |  | CC(=O)O[C@]1(C(C)=O)CC[C@H]2[C@@H]3C=C(Cl)C4=CC(=O)CC[C@]4(C)[C@H]3CC[C@@]21C [chiormadinone acetate, chlormadinone acetate] |  |  |  | 1.7 mg
4 |  |  |  |  | CC(=O)O[C@]1(C(C)=O)CC[C@H]2[C@@H]3C=C(Cl)C4=CC(=O)[C@@H]5C[C@@H]5[C@]4(C)[C@H]3CC[C@@]21C [cyproterone acetate] |  |  |  | 1 mg
